Experimental findings from patent publication US8846601B2, “Melanocortin receptor-specific peptides” (Palatin Technologies, Inc., priority 2009, dated 2014) are described below.

Usually Ki stands for the dissociation constant of the complex between target and ligand, obtained from inhibition or displacement.

Peptide text beside a SMILES is read from it.

T1 sequence (P32245 whole entry): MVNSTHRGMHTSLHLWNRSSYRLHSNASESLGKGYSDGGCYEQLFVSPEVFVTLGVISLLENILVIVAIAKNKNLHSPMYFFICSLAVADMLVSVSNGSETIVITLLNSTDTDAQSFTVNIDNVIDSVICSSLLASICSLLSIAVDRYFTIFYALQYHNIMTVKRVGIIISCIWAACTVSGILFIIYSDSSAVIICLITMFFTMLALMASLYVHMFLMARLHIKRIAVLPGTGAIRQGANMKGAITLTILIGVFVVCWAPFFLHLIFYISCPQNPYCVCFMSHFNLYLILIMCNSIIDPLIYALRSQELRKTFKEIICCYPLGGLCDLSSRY

One assay deals with T1, hMC4-R (Homo sapiens (Human), UniProt P32245). The assay can be described thus: Competitive inhibition binding assay using [I125]-NDP-α-MSH, hMC4-R membranes. Conditions: averaged; [I125]-NDP-α-MSH (values not marked *); read-out: MC4-R Ki. On the procedure:
A competitive inhibition binding assay is performed using membrane homogenates prepared from HEK-293 cells that express recombinant hMC4-R, hMC3-R, or hMC5-R, and from B-16 mouse melanoma cells (containing endogenous MC1-R). In some instances, HEK-293 cells that express recombinant hMC1-R were employed. In the examples that follow, all MC3-R, MC4-R and MC5-R values are for human recombinant receptors. […] Membrane homogenates were incubated with 0.2 nM (for hMC4-R) 0.4 nM (for MC3-R and MC5-R) or 0.1 nM (for mouse B16 MC1-R or hMC1-R) [I^125]-NDP-α-MSH (Perkin Elmer) and increasing concentrations of test peptides of the present invention in buffer containing 25 mM HEPES buffer (pH 7.5) with 100 mM NaCl, 2 mM CaCl2, 2 mM MgCl2, 0.3 mM 1,10-phenanthroline, and 0.2% bovine serum albumin. After incubation for 60 minutes at 37° C., the assay mixture was filtered and the membranes washed three times with ice-cold buffer. Filters were dried and counted in a gamma counter for bound radioactivity. […] Maximal specific binding (100%) was defined as the difference in radioactivity (cpm) bound to cell membranes in the absence and presence of 1 μM NDP-α-MSH. […] Each assay was conducted in triplicate and the actual mean values are described, with results less than 0% reported as 0%. Ki values for test peptides of the present invention were determined using Graph-Pad Prism® curve-fitting software.
Regarding `CC(=O)N[C@@H](CCCNC(=N)N)C(=O)N[C@H]1CC(=O)NCCCC[C@@H](C(N)=O)NC(=O)[C@H](Cc2c[nH]c3ccccc23)NC(=O)[C@H](CCCNC(=N)N)NC(=O)[C@@H](Cc2ccccc2)NC(=O)[C@@H]2C[C@@H](O)CN2C1=O` [compound 79, Ac-Arg-cyclo(Asp-Hyp- D-Phe-Arg-Trp-Lys)- NH2], the Ki was 4 nM.
The same measure, in the same setting: as for `CC(=O)N[C@@H](CCCNC(=N)N)C(=O)N[C@H]1CCC(=O)NCCC[C@@H](C(N)=O)NC(=O)[C@H](Cc2c[nH]c3ccccc23)NC(=O)[C@H](CCCNC(=N)N)NC(=O)[C@@H](Cc2ccccc2)NC(=O)[C@H](CC[S+](C)[O-])NC1=O` (stereo partly drawn) [compound 111, Ac-Arg-cyclo(Glu- Met(═O)-D-Phe-Arg- Trp-Orn)-NH2], the figure is 9 nM; as for `CC(=O)N[C@@H](CCCNC(=N)N)C(=O)N[C@H]1CC(=O)NCCCC[C@@H](C(=O)O)NC(=O)[C@H](Cc2c[nH]c3ccccc23)NC(=O)[C@H](CCCNC(=N)N)NC(=O)[C@@H](Cc2ccccc2)NC(=O)[C@@H]2C[C@@H](OCc3ccccc3)CN2C1=O` [compound 54, Ac-Arg-cyclo(Asp- Hyp(Bzl)-D-Phe-Arg- Trp-Lys)-OH], 3 nM.
The same measure, in the same setting: as for `CC(=O)N[C@@H](CCCNC(=N)N)C(=O)N[C@H]1CC(=O)NCCCC[C@@H](C(=O)O)NC(=O)[C@H](Cc2c[nH]c3ccccc23)NC(=O)[C@H](CCCNC(=N)N)NC(=O)[C@@H](Cc2ccccc2)NC(=O)[C@H](CCCN)NC1=O` [compound 58, Ac-Arg-cyclo(Asp-Orn- D-Phe-Arg-Trp-Lys)-OH], the figure is 23 nM.
On the same count and under the same terms, as for `CC(=O)N[C@@H](CCCNC(=N)N)C(=O)N[C@H]1CCCCNC(=O)C[C@@H](C(N)=O)NC(=O)[C@H](Cc2c[nH]c3ccccc23)NC(=O)[C@H](CCCNC(=N)N)NC(=O)[C@@H](Cc2ccccc2)NC(=O)[C@H](CCC(N)=O)NC1=O` [compound 151, Ac-Arg-cyclo(Lys-Gln- D-Phe-Arg-Trp-Asp)- NH2] (HELM PEPTIDE1{[ac].R.K.Q.[dF].R.W.D.[am]}$PEPTIDE1,PEPTIDE1,3:R3-8:R3$$$V2.0), the figure is 4 nM; as for `CC(=O)N[C@@H](CCCNC(=N)N)C(=O)N[C@H]1CC(=O)NCCCC[C@@H](C(N)=O)NC(=O)[C@H](Cc2c[nH]c3ccccc23)NC(=O)[C@H](CCCNC(=N)N)NC(=O)[C@@H](Cc2ccccc2)NC(=O)[C@H](Cc2cccc(C(N)=O)c2)NC1=O` [compound 49, Ac-Arg-cyclo(Asp-Phe- (3-(C(═O)—NH2))-D-Phe- Arg-Trp-Lys)-NH2], 15 nM.
For the compound `CC(=O)N[C@@H](CCCNC(=N)N)C(=O)N[C@H]1CCCNC(=O)CC[C@@H](C(N)=O)NC(=O)[C@H](Cc2c[nH]c3ccccc23)NC(=O)[C@H](CCCNC(=N)N)NC(=O)[C@@H](Cc2ccccc2)NC(=O)[C@H](Cc2c[nH]cn2)NC1=O` [compound 75, Ac-Arg-cyclo(Orn-His- D-Phe-Arg-Trp-Glu)- NH2] (HELM PEPTIDE1{[ac].R.[Orn].H.[dF].R.W.E.[am]}$PEPTIDE1,PEPTIDE1,3:R3-8:R3$$$V2.0), the Ki came to 0.6 nM.
`CC(=O)N[C@@H](CCCNC(=N)N)C(=O)N[C@H]1CC(=O)NCCCC[C@@H](C(N)=O)NC(=O)[C@H](Cc2c[nH]c3ccccc23)NC(=O)[C@H](CCCNC(=N)N)NC(=O)[C@@H](Cc2cccc3ccccc23)NC(=O)[C@H](Cc2c[nH]cn2)NC1=O` [compound 19, Ac-Arg-cyclo(Asp-His- D-Nal 1-Arg-Trp-Lys)- NH2]: the Ki is 3 nM.
The same measure, in the same setting: to `CC(=O)N[C@@H](CCCNC(=N)N)C(=O)N[C@H]1CCCC(=O)NCC[C@@H](C(N)=O)NC(=O)[C@H](Cc2c[nH]c3ccccc23)NC(=O)[C@H](CCCNC(=N)N)NC(=O)[C@@H](Cc2ccccc2)NC(=O)[C@H](CCS(C)(=O)=O)NC1=O` [compound 145, Ac-Arg-cyclo(hGlu- Met(O2)-D-Phe-Arg- Trp-Dab)-NH2] (HELM PEPTIDE1{[ac].R.[O=C([C@H](CCCC(=O)[*:3])N[*:1])[*:2]].[CS(=O)(=O)CC[C@H](N[*:1])C(=O)[*:2]].[dF].R.W.[Dab].[am]}$PEPTIDE1,PEPTIDE1,3:R3-8:R3$$$V2.0) belongs 4 nM.

For another assay, the target named is T1, hMC4-R. In words: Competitive binding assay using Eu-NDP-α-MSH (TRF), hMC4-R membranes. Conditions: averaged; Eu-NDP-α-MSH (values marked *); read-out: MC4-R Ki. The procedure: Alternatively, a competitive inhibition binding assay was performed employing Eu-NDP-α-MSH (PerkinElmer Life Sciences catalog No. AD0225) with determination by time-resolved fluorometry (TRF) of the lanthanide chelate. […] After incubation for 90 minutes at 37° C., the reaction was stopped by filtration over AcroWell 96-well filter plates (Pall Life Sciences). The filter plates were washed 4 times with 200 μL of ice-cold phosphate-buffered saline. DELFIA Enhancement solution (PerkinElmer Life Sciences) was added to each well. […] Each assay was conducted in duplicate and mean values were utilized. Ki values were determined by curve-fitting with Graph-Pad Prism® software using a one-site fixed-slope competition binding model.
In the case of `CC(=O)N[C@@H](CCCNC(=N)N)C(=O)N[C@H]1CC(=O)NCCCC[C@@H](C(N)=O)NC(=O)[C@H](Cc2c[nH]c3ccccc23)NC(=O)[C@H](CCCNC(=N)N)NC(=O)[C@@H](Cc2ccccc2)NC(=O)[C@H]([C@@H](C)O)NC1=O` [compound 35, Ac-Arg-cyclo(Asp-Thr- D-Phe-Arg-Trp-Lys)- NH2] (HELM PEPTIDE1{[ac].R.D.T.[dF].R.W.K.[am]}$PEPTIDE1,PEPTIDE1,3:R3-8:R3$$$V2.0), the Ki turned out to be 140 nM.
Still for that read-out and setting: to `CC(=O)NC[C@@H]1NC(=O)[C@@H](NC(=O)[C@H](CCCNC(=N)N)NC(C)=O)CC(=O)NCCCC[C@@H](C(N)=O)NC(=O)[C@H](Cc2c[nH]c3ccccc23)NC(=O)[C@H](CCCNC(=N)N)NC(=O)[C@@H](Cc2ccccc2)NC1=O` [compound 114, Ac-Arg-cyclo(Asp- Dab(Acetyl)-D-Phe-Arg- Trp-Lys)-NH2] belongs 88 nM; to `CC[C@H](C)[C@@H]1NC(=O)[C@@H](NC(=O)[C@H](CCCNC(=N)N)NC(C)=O)CC(=O)NCCCC[C@@H](C(N)=O)NC(=O)[C@H](Cc2c[nH]c3ccccc23)NC(=O)[C@H](CCCNC(=N)N)NC(=O)[C@@H](Cc2ccccc2)NC1=O` [compound 34, Ac-Arg-cyclo(Asp-Ile-D- Phe-Arg-Trp-Lys)-NH2] (HELM PEPTIDE1{[ac].R.D.I.[dF].R.W.K.[am]}$PEPTIDE1,PEPTIDE1,3:R3-8:R3$$$V2.0), 19 nM; to `CC(=O)N[C@@H](CCCNC(=N)N)C(=O)N[C@H]1CC(=O)NCCCC[C@@H](C(N)=O)NC(=O)[C@H](Cc2c[nH]c3ccccc23)NC(=O)[C@H](CCCNC(=N)N)NC(=O)[C@@H](Cc2ccccc2)NC(=O)[C@@H]2C[C@@H](Cc3ccccc3)CN2C1=O` [compound 18, Ac-Arg-cyclo(Asp- Pro(4R-Bzl)-D-Phe-Arg- Trp-Lys)-NH2], 3 nM.
On the same count and under the same terms, to `CC(=O)N[C@@H](CCCNC(=N)N)C(=O)N[C@H]1CC(=O)NCCCC[C@@H](C(=O)O)NC(=O)[C@H](Cc2c[nH]c3ccccc23)NC(=O)[C@H](CCCNC(=N)N)NC(=O)[C@@H](Cc2ccccc2)NC(=O)[C@H](CCCNC(=N)N)NC1=O` [compound 73, Ac-Arg-cyclo(Asp-Arg- D-Phe-Arg-Trp-Lys)-OH] belongs 60 nM; to `CC(=O)N[C@@H](CCCNC(=N)N)C(=O)N[C@H]1CC(=O)NCCCC[C@@H](C(N)=O)NC(=O)[C@H](Cc2c[nH]c3ccccc23)NC(=O)[C@H](CCCNC(=N)N)NC(=O)[C@@H](Cc2ccccc2)NC(=O)[C@@H]2C[C@@H](Cc3cccc(Cl)c3)CN2C1=O` [compound 124, Ac-Arg-cyclo(Asp- Pro(4R-3-Cl-Bzl)-D- Phe-Arg-Trp-Lys)-NH2], 19 nM; to `CC(=O)N[C@@H](CCCNC(=N)N)C(=O)N[C@H]1CC(=O)NCCCC[C@@H](C(N)=O)NC(=O)[C@H](Cc2c[nH]c3ccccc23)NC(=O)[C@H](CCCNC(=N)N)NC(=O)[C@@H](Cc2ccccc2)NC(=O)[C@@H]2C[C@@H](Cc3ccccc3Cl)CN2C1=O` [compound 123, Ac-Arg-cyclo(Asp- Pro(4R-2-Cl-Bzl)-D- Phe-Arg-Trp-Lys)-NH2], 8 nM.
As to `CC(=O)N[C@@H](CCCNC(=N)N)C(=O)N[C@H]1CC(=O)NCCCC[C@@H](C(N)=O)NC(=O)[C@H](Cc2c[nH]c3ccccc23)NC(=O)[C@H](CCCNC(=N)N)NC(=O)[C@@H](Cc2ccccc2)NC(=O)[C@H](CCCNC(=N)N)NC1=O` [compound 28, Ac-Arg-cyclo(Asp-Arg- D-Phe-Arg-Trp-Lys)- NH2], the Ki worked out at 4 nM.
The same measure, in the same setting: to `CC(=O)N[C@H](CCCNC(=N)N)C(=O)N[C@H]1CC(=O)NCCCC[C@@H](C(N)=O)NC(=O)[C@H](Cc2c[nH]c3ccccc23)NC(=O)[C@H](CCCNC(=N)N)NC(=O)[C@@H](Cc2ccccc2)NC(=O)[C@H](C)NC1=O` [compound 70, Ac-D-Arg-cyclo(Asp- Ala-D-Phe-Arg-Trp- Lys)-NH2] belongs 46 nM; to `CC(=O)N[C@@H](CCCNC(=N)N)C(=O)N[C@H]1CC(=O)NCCCC[C@@H](C(N)=O)NC(=O)[C@H](Cc2c[nH]c3ccccc23)NC(=O)[C@H](CCCNC(=N)N)NC(=O)[C@@H](Cc2ccccc2)NC(=O)[C@H](Cc2ccc(O)cc2)NC1=O` [compound 11, Ac-Arg-cyclo(Asp-Tyr- D-Phe-Arg-Trp-Lys)- NH2] (HELM PEPTIDE1{[ac].R.D.Y.[dF].R.W.K.[am]}$PEPTIDE1,PEPTIDE1,3:R3-8:R3$$$V2.0), 43 nM.
